Assay results reported in patent US8361968B2 (Takeda Pharmaceutical Company Limited, priority 2002, dated 2013).
Numbered stars: 1 amine (or outer) side, 2 acyl side, 3 side chain; on linkers, the order of the positions; unused ones are H or OH. Square brackets hold non-standard residues; d marks the D form. Peptide text beside a SMILES is read from it. * marks the point of attachment. Phe(2-Cl) = N[C@@H](Cc1ccccc1Cl)C(=O)O; 2Nal = N[C@@H](Cc1ccc2ccccc2c1)C(=O)O; Arg(Me) = CNC(=N)NCCC[C@H](N)C(=O)O; Tryptamide = c1ccc2c(CCN*)c[nH]c2c1; d3Pal = N[C@H](Cc1cccnc1)C(=O)O; d4Pal = N[C@H](Cc1ccncc1)C(=O)O; Cha = N[C@@H](CC1CCCCC1)C(=O)O; CO = O=C([*:1])[*:2]; azaGly = NNC(=O)O

molecular target: hOT7T175 (Homo sapiens, UniProt Q969F8, L364H); experiment: Intracellular Ca ion level-increasing activity using FLIPR in hOT7T175/CHO; format: cell-based; set-up: expressed in transfected cells; host or cells: CHO/dhfr- cells, obtained from ATCC; details: relative, Metastin (1-54) = 1
Experimental: Assay for Intracellular Ca Ion Level-Increasing Activity Using Flipr
In accordance with the method described in JPA 2000-312590, the intracellular Ca ion level-increasing activity was measured using FLIPR.
The stable expression cell line hOT7T175 was acquired by transduction of expression plasmid pAK-rOT175 for animal cells into CHO/dhff cells, using CellPhect Transfection Kit (Amersham Pharmacia Biotech, Inc.). First, 240 μL of Buffer A (attached to CellPhect Transfection Kit) was added to 9.6 μg of plasmid DNA dissolved in 240 μl of distilled water, followed by stirring. After settling the mixture for 10 minutes, 480 μL of Buffer B (attached to CellPhect Transfection Kit) was added to the mixture, which was vigorously stirred to form DNA-containing liposomes. Then, 4×10^5 CHO/dhff cells (obtained from ATCC) were inoculated on a 60 mm Petri dish. […] After culturing the cells at 37° C. for 6 hours in 5% carbon dioxide gas, the cells were washed twice with serum-free Ham's F-12 medium and 3 ml of 15% glycerol was added to the cells in the Petri dish to treat for 2 minutes. The cells were again washed twice with serum-free Ham's F-12 medium followed by incubation in Ham's F-12 medium supplemented with 10% fetal bovine serum at 37° C. for 15 hours in 5% carbon dioxide gas. The cells were dispersed by trypsin treatment and recovered from the Petri dish. The recovered cells were inoculated on a 6-well plate in 1.25×10^4 cells/well and incubation was initiated at 37° C. in Dulbecco's modified Eagle medium (DMEM) medium (Nissui Seiyaku Co., Ltd.) containing 10% dialyzed fetal bovine serum (JRH BIOSCIENCES, Inc.) under 5% carbon dioxide gas. […] The medium was exchanged on Days 1 and 2 to remove the cells died.
The intracellular Ca ion level-increasing activity of the synthetic peptide in hOT7T175/CHO was determined using FLIPR (Molecular Devices, Inc.).
hOT7T175/CHO was subcultured in DMEM supplemented with 10% dialyzed fetal bovine serum (hereinafter abbreviated as dFBS) and provided for the experiment (hereinafter abbreviated as 10% dFBS/DMEM). The hOT7T175/CHO was suspended in 10% dFBS-DMEM in 15×10^4 cells/ml. The suspension was inoculated on a 96-well plate for FLIPR (Black Plate Clear Bottom, Coster, Inc.) at 200 μL each (3.0×10^4 cells/200 μL/well), followed by incubation at 37° C. overnight in a 5% CO2 incubator (hereinafter simply referred to as the cell plate). Then, 21 ml of HANKS/HBSS (9.8 g of HANKS, 0.35 g of sodium hydrogencarbonate, 20 ml of 1M HEPES; after adjusting the pH to 7.4 with 1N sodium hydroxide, the mixture was sterilized by filtration), 210 μl of 250 mM Probenecid and […] of fetal bovine serum (FBS) were mixed (HANKS/HBSS-Probenecid-FBS).
Furthermore, 2 vials of Fluo3-AM (50 μug/vial) were dissolved in 21 μL of dimethylsulfoxide and 21 μL of 20% Pluronic acid. The resulting solution was added to and mixed with 10 ml of HANKS/HBSS-Probenecid-FBS described above. After the culture medium was removed, the mixture was dispensed onto the cell plate in 100 μL each/well, followed by incubation at 37° C. for an hour in a 5% CO2 incubator (pigment loading). The peptide was dissolved in dimethylsulfoxide in 1×10^−3 M. The peptide solution was diluted with HANKS/HBSS containing 2.5 mM Probenecid, 0.2% BSA and 0.1% CHAPS.

Sequence of hOT7T175 (Q969F8 whole entry L364H): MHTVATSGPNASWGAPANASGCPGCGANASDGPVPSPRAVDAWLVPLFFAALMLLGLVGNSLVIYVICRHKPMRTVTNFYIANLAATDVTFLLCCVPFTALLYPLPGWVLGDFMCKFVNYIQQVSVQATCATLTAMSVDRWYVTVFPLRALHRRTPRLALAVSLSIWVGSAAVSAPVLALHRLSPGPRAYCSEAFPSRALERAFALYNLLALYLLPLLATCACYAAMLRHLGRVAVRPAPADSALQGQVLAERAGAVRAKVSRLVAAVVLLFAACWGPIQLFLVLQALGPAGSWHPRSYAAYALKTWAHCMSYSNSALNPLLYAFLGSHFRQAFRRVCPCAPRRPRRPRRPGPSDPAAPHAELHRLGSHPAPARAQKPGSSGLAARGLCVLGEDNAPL

Row | Compound | Specific Activity (intracellular Ca ion level-increasing activity)
1 | CNC(=N)NCCC[C@H](NC(=O)[C@H](CC(C)C)NC(=O)CNC(=O)[C@H](Cc1ccccc1)NC(=O)[C@H](CO)NC(=O)[C@@H](NC(=O)[C@H](Cc1c[nH]c2ccccc12)NC(=O)[C@H](CC(N)=O)NC(=O)[C@H](N)Cc1ccc(O)cc1)[C@@H](C)O)C(=O)N[C@@H](Cc1ccccc1)C(N)=O [Compound No. 208] (H-[dY]NWTSFGL[Arg(Me)]F-NH2) | 1
2 | CC(C)C[C@H](NC(=O)CNC(=O)[C@H](Cc1ccccc1)NC(=O)[C@H](CO)NC(=O)[C@H](CC(N)=O)NC(=O)[C@H](Cc1c[nH]c2ccccc12)NC(=O)[C@H](CC(N)=O)NC(=O)[C@@H](N)Cc1ccc(O)cc1)C(=O)N[C@@H](CCCNC(=N)N)C(=O)N[C@@H](Cc1ccc([N+](=O)[O-])cc1)C(N)=O [Compound No. 132] | 10
3 | CNC(=N)NCCC[C@H](NC(=O)[C@H](CC(C)C)NC(=O)CNC(=O)[C@H](Cc1ccccc1)NC(=O)[C@H](CO)NC(=O)[C@H](CC(N)=O)NC(=O)[C@H](Cc1c[nH]c2ccccc12)NC(=O)[C@H](CC(N)=O)NC(=O)[C@H](N)Cc1ccc(O)cc1)C(=O)N[C@@H](Cc1c[nH]c2ccccc12)C(N)=O [Compound No. 174] (H-[dY]NWNSFGL[Arg(Me)]W-NH2) | 10
4 | CC(C)C[C@H](NC(=O)CNC(=O)[C@H](Cc1ccccc1)NC(=O)[C@H](CO)NC(=O)[C@H](CC(N)=O)NC(=O)[C@H](Cc1c[nH]c2ccccc12)NC(=O)[C@@H](CC(N)=O)NC(=O)[C@@H](N)Cc1ccc(O)cc1)C(=O)N[C@@H](CCCNC(=N)N)C(=O)N[C@@H](Cc1ccccc1)C(N)=O [Compound No. 41] | 10
5 | CNC(=N)NCCC[C@H](NC(=O)[C@H](CC(C)C)NC(=O)NNC(=O)[C@H](Cc1ccccc1)NC(=O)[C@H](CO)NC(=O)[C@H](CC(N)=O)NC(=O)[C@H](CC1CCCCC1)NC(=O)[C@H](CC(N)=O)NC(=O)[C@H](N)Cc1ccc(O)cc1)C(=O)N[C@@H](Cc1ccccc1)C(N)=O [Compound No. 190, D-Tyr-Asn-Cha-Asn-Ser-Phe-AzaGly-Leu-Arg(Me)-Phe-NH2] (H-[dY]N[Cha]NSF[azaGly]L[Arg(Me)]F-NH2) | 10
6 | CC(C)C[C@H](NC(=O)CNC[C@H](Cc1ccccc1)NC(=O)[C@H](CO)NC(=O)[C@H](CC(N)=O)NC(=O)[C@H](Cc1c[nH]c2ccccc12)NC(=O)[C@H](CC(N)=O)NC(=O)[C@@H](N)Cc1ccc(O)cc1)C(=O)N[C@@H](CCCNC(=N)N)C(=O)N[C@@H](Cc1ccccc1)C(N)=O [Compound No. 163, Tyr-Asn-Trp-Asn-Ser-PheΨ(CH2NH)Gly-Leu-Arg-Phe-NH2] | 1
7 | CC(C)C[C@H](NC(=O)CNC(=O)[C@H](Cc1ccc2ccccc2c1)NC(=O)[C@H](CO)NC(=O)[C@H](CC(N)=O)NC(=O)[C@H](Cc1c[nH]c2ccccc12)NC(=O)[C@H](CC(N)=O)NC(=O)[C@@H](N)Cc1ccc(O)cc1)C(=O)N[C@@H](CCCNC(=N)N)C(=O)N[C@@H](Cc1ccccc1)C(N)=O [Compound No. 152, Tyr-Asn-Trp-Asn-Ser-Nal(2)-Gly-Leu-Arg-Phe-NH2] (H-YNWNS[2Nal]GLRF-NH2) | 5
8 | CNC(=N)NCCC[C@H](NC(=O)[C@H](CC(C)C)NC(=O)NNC(=O)[C@H](Cc1ccccc1)NC(=O)[C@H](CO)NC(=O)[C@H](CC(N)=O)NC(=O)NCCc1c[nH]c2ccccc12)C(=O)N[C@@H](Cc1ccccc1)C(N)=O [Compound No. 279, 2-(indol-3-yl)ethylcarbamoyl-Asn-Ser-Phe-AzaGly-Leu-Arg(Me)-Phe-NH2] ({Tryptamide-CO}-NSF[azaGly]L[Arg(Me)]F-NH2) | 5
9 | CNC(=N)NCCC[C@H](NC(=O)[C@H](CC(C)C)NC(=O)NNC(=O)[C@H](Cc1ccccc1)NC(=O)[C@H](CO)NC(=O)[C@H](CC(N)=O)NC(=O)[C@H](Cc1ccccc1Cl)NC(=O)[C@H](CC(N)=O)NC(=O)[C@H](N)Cc1ccc(O)cc1)C(=O)N[C@@H](Cc1ccccc1)C(N)=O [Compound No. 247, D-Tyr-Asn-Phe(2Cl)-Asn-Ser-Phe-AzaGly-Leu-Arg(Me)-Phe-NH2] (H-[dY]N[Phe(2-Cl)]NSF[azaGly]L[Arg(Me)]F-NH2) | 1

Further lines, results first:

Row | Specific Activity (intracellular Ca ion level-increasing activity) | Compound
10 | 2 | CNC(=N)NCCC[C@H](NC(=O)[C@H](CC(C)C)NC(=O)NNC(=O)[C@H](Cc1ccccc1)NC(=O)[C@H](CO)NC(=O)[C@H](CC(N)=O)NC(=O)[C@@H](Cc1ccncc1)NC(=O)[C@H](CC(N)=O)NC(=O)[C@H](N)Cc1ccc(O)cc1)C(=O)N[C@@H](Cc1ccccc1)C(N)=O [Compound No. 302, D-Tyr-Asn-D-Pya(4)-Asn-Ser-Phe-AzaGly-Leu-Arg(Me)-Phe-NH2] (H-[dY]N[d4Pal]NSF[azaGly]L[Arg(Me)]F-NH2)
11 | 1 | CNC(=N)NCCC[C@H](NC(=O)[C@H](CC(C)C)NC(=O)NNC(=O)[C@H](Cc1ccccc1)NC(=O)[C@@H](NC(=O)[C@H](CC(N)=O)NC(=O)[C@H](Cc1c[nH]c2ccccc12)NC(=O)[C@H](CC(N)=O)NC(=O)[C@H](N)Cc1ccc(O)cc1)[C@@H](C)O)C(=O)N[C@@H](Cc1ccccc1)C(N)=O [Compound No. 297, D-Tyr-Asn-Trp-Asn-Thr-Phe-AzaGly-Leu-Arg(Me)-Phe-NH2] (H-[dY]NWNTF[azaGly]L[Arg(Me)]F-NH2; N-terminus assumed)
12 | 1 | CNC(=N)NCCC[C@H](NC(=O)[C@H](CC(C)C)NC(=O)NNC(=O)[C@H](Cc1ccccc1)NC(=O)[C@H](CO)NC(=O)[C@H](CC(N)=O)NC(=O)[C@H](CC1CCCCC1)NC(=O)[C@@H](CC(N)=O)NC(=O)[C@H](N)Cc1cccnc1)C(=O)N[C@@H](Cc1ccccc1)C(N)=O [Compound No. 290, D-Pya(3)-D-Asn-Cha-Asn-Ser-Phe-AzaGly-Leu-Arg(Me)-Phe-NH2] (H-[d3Pal][dN][Cha]NSF[azaGly]L[Arg(Me)]F-NH2)
13 | 5 | Methylthiocarbamoyl-Sar-D-Tyr-Asn-Trp-Asn-Ser-Phe-Gly-Leu-Arg(Me)-Phe-NH2 [Compound No. 397]
14 | 5 | CNC(=N)NCCC[C@H](NC(=O)[C@H](CC(C)C)NC(=O)NNC(=O)[C@H](Cc1ccccc1)NC(=O)[C@@H](NC(=O)[C@H](CC(N)=O)NC(=O)[C@H](Cc1c[nH]c2ccccc12)NC(=O)[C@@H](CC(N)=O)NC(=O)[C@H](N)Cc1ccc(O)cc1)[C@@H](C)O)C(=O)N[C@@H](Cc1ccccc1)C(N)=O [Compound No. 298, D-Tyr-D-Asn-Trp-Asn-Thr-Phe-AzaGly-Leu-Arg(Me)-Phe-NH2] (H-[dY][dN]WNTF[azaGly]L[Arg(Me)]F-NH2)
15 | 1 | Dap-D-Tyr-Asn-Trp-Asn-Ser-Phe-Gly-Leu-Arg(Me)-Phe-NH2 [Compound No. 387]
16 | 5 | CNC(=N)NCCC[C@H](NC(=O)[C@H](CC(C)C)NC(=O)NNC(=O)[C@H](Cc1ccccc1)NC(=O)[C@H](CO)NC(=O)[C@H](CC(N)=O)NC(=O)[C@H](Cc1c[nH]c2ccccc12)NC(=O)[C@H](CC(N)=O)NC(=O)[C@H](N)Cc1ccc(O)cc1)C(=O)N[C@@H](Cc1ccc(F)cc1)C(N)=O [Compound No. 318, D-Tyr-Asn-Trp-Asn-Ser-Phe-AzaGly-Leu-Arg(Me)-Phe(4F)-NH2]
17 | 2 | 2-Aminoethyl-Gly-D-Tyr-Asn-Trp-Asn-Ser-Phe-Gly-Leu-Arg(Me)-Phe-NH2 [Compound No. 375]
